Test results: publication PMC5725709, “PufQ regulates porphyrin flux at the haem/bacteriochlorophyll branchpoint of tetrapyrrole biosynthesis via interactions with ferrochelatase” (Molecular Microbiology, 2017)

Biological target: T1, FeCH (ferrochelatase) (Cereibacter sphaeroides, UniProt Q3IYK5, Y58H)
T1 construct: gene HemH; His-tagged, pET14b, E. coli Rosetta pLysS
Assay: spectrophotometric ferrochelatase assay (DIX consumption at […] nm, isosbestic reference […] nm)
Type: biochemical
Conditions: 1 µM FeCH, 30 µM DIX, 100 µM CoCl2, 25 mM Tris pH 7.4, 0.15% Tween 80; active, substantially lower than wild type

T1 sequence (Q3IYK5 entry or part of it Y58H): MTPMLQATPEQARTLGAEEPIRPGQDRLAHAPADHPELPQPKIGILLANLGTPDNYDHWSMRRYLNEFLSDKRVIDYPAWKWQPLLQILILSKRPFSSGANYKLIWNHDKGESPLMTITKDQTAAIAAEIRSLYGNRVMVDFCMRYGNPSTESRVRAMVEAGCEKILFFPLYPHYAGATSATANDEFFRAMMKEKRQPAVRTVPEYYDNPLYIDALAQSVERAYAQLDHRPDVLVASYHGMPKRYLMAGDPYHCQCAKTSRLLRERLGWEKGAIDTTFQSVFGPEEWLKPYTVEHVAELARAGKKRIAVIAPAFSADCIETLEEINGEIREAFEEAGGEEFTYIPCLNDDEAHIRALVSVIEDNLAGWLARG

CC1=C(CCC(=O)O)c2cc3nc(cc4[nH]c(cc4C)cc4[nH]c(cc1n2)cc4C)C(C)=C3CCC(=O)O [deuteroporphyrin IX]
spectrophotometric ferrochelatase assay (DIX consumption at 496 nm, isosbestic r): the ΔpufQ PSvar version of the FeCH protein is active
